Data as given in US9510598B2, “Nitrogen-containing heterocyclic compounds for plant disease control” (BAYER CROPSCIENCE AG, priority 2012, dated 2016).
Read-outs that look alike come from different tables or passages of the source.

Experiments:
Alternaria brassicae = test: In vivo preventive test on Alternaria brassicae (leaf spot on radish); conditions: 500 ppm; radish plants sprayed 24 hours before contamination; grading 5 days after contamination vs control plants
Experimental: Radish plants (“Pernod Clair” variety), sown in starter cups on a 50/50 peat soil-pozzolana substrate and grown at 17° C., are treated at the 2-leaf stage by spraying with the active ingredient prepared as described above. Plants, used as controls, are treated with the mixture of acetone/tween/DMSO/water not containing the active material. After 24 hours, the plants are contaminated by spraying the leaves with an aqueous suspension of Alternaria brassicae spores (50 000 spores per ml). The spores are collected from a 15-day-old culture. […] Grading (% of efficacy) is carried out 5 days after the contamination, in comparison with the control plants.

[1] = format: physicochemical
Septoria tritici = test: In vivo preventive test on Septoria tritici (leaf spot on wheat); conditions: 500 ppm; wheat plants sprayed 24 hours before contamination; grading 21 to 28 days after contamination vs control plants
Outline: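 Scipion wheat at 1-leaf stage sprayed with compound, controls receiving acetone/tween/DMSO/water vehicle; 24 h later leaves inoculated with Septoria tritici spores (500 000 spores per ml). Efficacy (%) graded versus control plants 21 to 28 days after contamination.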

Botrytis cinerea = test: In vivo preventive test on Botrytis cinerea (grey mould); conditions: 500 ppm; gherkin plants sprayed 24 hours before contamination; grading 4-5 days after contamination vs control plants
Outline: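 Gherkin plants ("Vert petit de Paris") sprayed with compound at Z11 cotyledon stage, then inoculated 24 h later with B. cinerea spores (50 000/ml) in PDB/fructose/NH4NO3/KH2PO4 nutrient solution. Incubated at 17 °C, 80% RH; % efficacy versus solvent-treated controls graded 4–5 days after contamination.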

Sphaerotheca fuliginea = test: In vivo preventive test on Sphaerotheca fuliginea (powdery mildew on cucurbits); conditions: 500 ppm; gherkin plants sprayed 24 hours before contamination; grading 12 days after contamination vs control plants
Outline: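 Preventive spray of gherkin plants at Z11 cotyledon stage, grown at 24° C; inoculation 24 hours later with Sphaerotheca fuliginea spores (100 000 spores per ml). Efficacy graded 12 days post-inoculation as % versus solvent-treated control plants.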

Phytophthora infestans = format: in vivo; conditions: 500 ppm; tomato plants sprayed 24 hours before contamination; grading 5 days after contamination vs control plants
[2] = method [a]: HPLC/LC-MS on reversed phase at pH 2.7, 0.1% formic acid in water / acetonitrile, linear gradient 10% to 95% acetonitrile
[3] = HPLC on reversed phase columns, method [a]: pH 2.7, 0.1% formic acid in water / acetonitrile, linear gradient 10% to 95% acetonitrile
[4] = method [a]: HPLC/LC-MS on reversed phase at pH 2.7, 0.1% formic acid in water / acetonitrile, gradient 10% to 95% acetonitrile

| SMILES | % of efficacy (protection) (Alternaria brassicae) [%] | log P [1, 2] | % of efficacy (protection) (Septoria tritici) [%] | log P [1, 4] | % of efficacy (protection) (Botrytis cinerea) [%] | other results |
| --- | --- | --- | --- | --- | --- | --- |
| Cc1nc(CNC(=O)C2(C)CC(c3ccc4ncc(Br)cc4c3)=NO2)no1 (stereo not drawn) [compound 171] | 75 | 2.23^[a] | 71 |  |  |  |
| CC1(C(=O)NCC2(c3ccc(F)cc3)CC2)CC(c2ccc3ncc(Br)cc3c2)=NO1 (stereo not drawn) [compound 221] | 98 | 3.81^[a] |  |  |  |  |
| C#Cc1cnc2ccc(C3=NOC(C)(C(=O)NCC4OCCc5ccccc54)C3)cc2c1 (single isomer, unassigned) [compound 245] | 94 |  | 71 |  |  | log P [1, 3]: 2.92^[a] |
| C#Cc1cnc2ccc(C3=NOC(C)(C(=O)NCc4ccc5[nH]c(C)cc5c4)C3)cc2c1 (stereo not drawn) [compound 226] | 81 | 2.84^[a] |  |  |  |  |
| C#Cc1cc2cc(C3=NOC(C)(C(=O)NCc4cn(CC)nc4C)C3)ccc2nc1Cl (stereo not drawn) [compound 411] | 80 |  |  | 2.59[a] |  |  |
| CCOC1(C(=O)NC(C)C)CC(c2ccc3ncc(Br)cc3c2)=NO1 (stereo not drawn) [compound 415] | 80 |  |  | 2.98[a] |  |  |
| C#Cc1cnc2ccc(C3=NOC(C)(C(=O)NCc4ccco4)C3)cc2c1 (stereo not drawn) [compound 164] | 88 | 2.51^[a] |  |  | 71 |  |
| CC1(C(=O)NCc2ccc(Oc3ccccc3)cc2)CC(c2ccc3ncc(Br)cc3c2)=NO1 (stereo not drawn) [compound 84] | 80 | 4.24^[a] |  |  |  |  |
| C#Cc1cnc2ccc(C3=NOC(C)(C(=O)NCc4ccc5c(c4)OCC5)C3)cc2c1 (stereo not drawn) [compound 220] | 88 | 2.82^[a] |  |  | 100 |  |
| CC(C)NC(=O)C1(CC2CC2)CC(c2ccc3ncc(Br)cc3c2)=NO1 (stereo not drawn) [compound 422] | 72 |  |  | 3.60[a] |  |  |
| CC1(C(=O)NCc2cccc(OC(F)(F)F)c2)CC(c2ccc3ncc(Br)cc3c2)=NO1 (stereo not drawn) [compound 188] | 88 | 3.89^[a] |  |  |  |  |
| C#Cc1cnc2ccc(C3=NOC(C)(C(=O)NCc4ccc(OC(F)(F)F)cc4)C3)cc2c1 (stereo not drawn) [compound 173] | 88 | 3.53^[a] |  |  |  |  |
| CC1(C(=O)NCc2ccco2)CC(c2ccc3ncc(Br)cc3c2)=NO1 (stereo not drawn) [compound 161] | 75 | 2.82^[a] |  |  |  |  |
| C#Cc1cnc2ccc(C3=NOC(C)(C(=O)NCc4csc5ccc(Cl)cc45)C3)cc2c1 (stereo not drawn) [compound 244] | 81 |  |  |  |  | log P [1, 3]: 3.74^[a] |
| C#Cc1cnc2ccc(C3=NOC(C)(C(=O)NC(C)COCC)C3)cc2c1 (stereo not drawn) [compound 506] |  |  | 100 | 2.55[a] | 100 | % of efficacy (protection) (Sphaerotheca fuliginea): 97%; % of efficacy (protection) (Phytophthora infestans): 94% |
| CC1(C)OCC(CNC(=O)C2(C)CC(c3ccc4ncc(I)cc4c3)=NO2)O1 (stereo not drawn) [compound 474] |  |  | 97 | 2.78[a] | 100 | % of efficacy (protection) (Sphaerotheca fuliginea): 98%; % of efficacy (protection) (Phytophthora infestans): 78% |
| C#Cc1cnc2ccc(C3=NOC(C)(C(=O)NCc4ccccc4Oc4ccccc4)C3)cc2c1 (stereo not drawn) [compound 187] | 88 | 3.89^[a] |  |  |  |  |
| C#Cc1cnc2ccc(C3=NOC(C)(C(=O)NCc4cnn(CC)c4CC)C3)cc2c1 (stereo not drawn) [compound 464] |  |  | 100 | 2.37[a] | 98 | % of efficacy (protection) (Sphaerotheca fuliginea): 100%; % of efficacy (protection) (Phytophthora infestans): 100% |

| SMILES | % of efficacy (protection) (Alternaria brassicae) [%] | log P [1, 2] | % of efficacy (protection) (Septoria tritici) [%] | log P [1, 4] | % of efficacy (protection) (Botrytis cinerea) [%] | other results |
| --- | --- | --- | --- | --- | --- | --- |
| CCCn1cc(CNC(=O)C2(CC)CC(c3ccc4ncc(Br)cc4c3)=NO2)c(C)n1 (stereo not drawn) [compound 500] |  |  | 86 | 2.91[a] | 85 | % of efficacy (protection) (Sphaerotheca fuliginea): 100%; % of efficacy (protection) (Phytophthora infestans): 94% |
| CC1(C(=O)NCc2csc3ccc(Cl)cc23)CC(c2ccc3ncc(Br)cc3c2)=NO1 (stereo not drawn) [compound 241] | 81 |  |  |  |  | log P [1, 3]: 4.21^[a] |
| C#Cc1cnc2ccc(C3=NOC(C)(C(=O)NCc4ccncc4)C3)cc2c1 (stereo not drawn) [compound 99] | 70 | 1.2^[a] |  |  | 100 |  |
| C#Cc1cnc2ccc(C3=NOC(C)(C(=O)NCc4ccc5c(c4)OCCO5)C3)cc2c1 (stereo not drawn) [compound 208] | 88 | 2.71^[a] |  |  |  |  |
| CC1(C(=O)NCc2ccc(Cl)cc2Cl)CC(c2ccc3ncc(Br)cc3c2)=NO1 (stereo not drawn) [compound 95] | 70 | 4.16^[a] |  |  |  |  |
| CCCn1cc(CNC(=O)C2(OC)CC(c3ccc4ncc(I)cc4c3)=NO2)c(C)n1 (racemic) [compound 449] |  |  | 98 | 2.73[a] | 99 | % of efficacy (protection) (Sphaerotheca fuliginea): 100%; % of efficacy (protection) (Phytophthora infestans): 100% |
| CCCOc1cnc2ccc(C3=NOC(C)(C(=O)NC(C)C)C3)cc2c1 (stereo not drawn) [compound 412] | 70 |  |  | 2.16[a] |  |  |
| C#Cc1cnc2ccc(C3=NOC(C=C)(C(=O)NCC4COC(C)(C)O4)C3)cc2c1 (stereo not drawn) [compound 725] |  |  | 100 |  | 98 | log P ([1]; HPLC on reversed phase columns, method [a]: pH 2.7, 0.1% formic acid in water and acetonitrile, linear gradient 10% to 95% acetonitrile): 2.66[a]; % of efficacy (protection) (Sphaerotheca fuliginea): 98%; % of efficacy (protection) (Phytophthora infestans): 83% |
| CCOCCCNC(=O)C1(CC2CC2)CC(c2ccc3ncc(Br)cc3c2)=NO1 (racemic) [compound 426] | 78 |  |  | 3.55[a] |  |  |
| C#Cc1cnc2ccc(C3=NOC(OC)(C(=O)NC(C)(C)c4nc(C)cs4)C3)cc2c1 (stereo not drawn) [compound 514] |  |  | 98 |  | 100 | log P [1, 3]: 2.90[a]; % of efficacy (protection) (Sphaerotheca fuliginea): 75%; % of efficacy (protection) (Phytophthora infestans): 97% |
| C#Cc1cnc2ccc(C3=NOC(C)(C(=O)NCC4CCCCC4)C3)cc2c1 (stereo not drawn) [compound 246] | 75 |  |  |  |  | log P [1, 3]: 3.55^[a] |
| O=C(NC1CC1)C1(CC2CC2)CC(c2ccc3ncc(Br)cc3c2)=NO1 (racemic) [compound 427] | 83 |  |  | 3.20[a] |  |  |
| CC1(C(=O)NCc2ccnc(N3CCOCC3)c2)CC(c2ccc3ncc(Br)cc3c2)=NO1 (stereo not drawn) [compound 98] | 70 | 1.51^[a] |  |  |  |  |
| C#Cc1cnc2ccc(C3=NOC(C)(C(=O)NCc4ccc(C)o4)C3)cc2c1 (stereo not drawn) [compound 163] | 88 | 2.8^[a] |  |  |  |  |
| Cc1cnc(CNC(=O)C2(C)CC(c3ccc4ncc(Br)cc4c3)=NO2)cn1 (stereo not drawn) [compound 85] | 96 | 2.2^[a] | 75 |  |  |  |
| CC(C)NC(=O)C12OCCCC1C(c1ccc3ncc(Br)cc3c1)=NO2 (stereo not drawn) [compound 273] | 75 |  |  |  |  | log P [1, 3]: 2.90[a] |
| C#Cc1cnc2ccc(C3=NOC(CC)(C(=O)NCc4cn(CCC)nc4C)C3)cc2c1 (racemic) [compound 445] |  |  | 94 | 2.64[a] | 93 | % of efficacy (protection) (Sphaerotheca fuliginea): 94%; % of efficacy (protection) (Phytophthora infestans): 100% |
| C#Cc1cnc2ccc(C3=NOC(C)(C(=O)NCc4cnn(CC)c4C)C3)cc2c1 (stereo not drawn) [compound 195] |  | 2.11^[a] | 100 |  | 97 | % of efficacy (protection) (Sphaerotheca fuliginea): 98%; % of efficacy (protection) (Phytophthora infestans): 100% |
